Test results from publication PMC11391043, “Revealing the pH-dependent conformational changes in sol g 2.1 protein and potential ligands binding” (Scientific Reports, 2024).

Tests used:
[1] = target: T1, rSol g 2.1 protein (Solenopsis geminata, UniProt A0A9E7V488); test: Fluorescence binding assay of 1-NPN probe with rSol g 2.1 (Scatchard plots); details: 50 mM Tris-HCl, ± SEM, triplicate
T1 sequence (A0A9E7V488 1-119): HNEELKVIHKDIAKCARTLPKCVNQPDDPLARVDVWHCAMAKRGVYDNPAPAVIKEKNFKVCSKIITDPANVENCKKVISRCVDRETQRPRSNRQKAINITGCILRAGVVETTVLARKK
Source text: The FCBA is that a fluorescence probe, N-phenyl-1-naphthylamine (1-NPN, purity > 98%, Sigma Aldrich) binds with the hydrophobic binding cavity of the protein, especially with Tryptophan amino acid (Trp). Then Trp will transfer energy to 1-NPN-probe, leading to an increased emission wavelength at approximately 400 nm with dose-dependent. Besides, when the aliquot of a ligand competitor, the ligand will be competed for 1-NPN-probe, resulting in a decreased emission wavelength at 400 nm. In this study, we performed the FCBA to determine the binding activity of Sol g 2.1 protein and the potential ligands. […] Fluorescence intensity was measured using a spectrofluorometer (FluoroMax + SpectroFluorometer, Horiba Scientific) with excitation at 337 nm and emission scanning from 370 to 490 nm, at room temperature, in triplicate. The equilibrium dissociation (Kd) value was determined by plotting the fluorescence intensity at 400 nm against each 1-NPN concentration. The data were fitted to a one-site-specific binding model as follows: Y = Bmax*X/(Kd + X), where Y, X, Bmax, and Kd are the fluorescence intensity (counts/second), fluorescence probe concentration (μM), the maximum specific binding in the same units as Y, and the equilibrium dissociation constant in the same units as X.

[2] = target: T1, rSol g 2.1 protein; test: Fluorescence competitive binding assay (FCBA), 1-NPN displacement; details: 2 µM rSol g 2.1, 5 µM 1-NPN
Source text: The FCBA is that a fluorescence probe, N-phenyl-1-naphthylamine (1-NPN, purity > 98%, Sigma Aldrich) binds with the hydrophobic binding cavity of the protein, especially with Tryptophan amino acid (Trp). Then Trp will transfer energy to 1-NPN-probe, leading to an increased emission wavelength at approximately 400 nm with dose-dependent. Besides, when the aliquot of a ligand competitor, the ligand will be competed for 1-NPN-probe, resulting in a decreased emission wavelength at 400 nm. In this study, we performed the FCBA to determine the binding activity of Sol g 2.1 protein and the potential ligands. To examine affinity binding, a stock solution of 5 mM 1-NPN in methanol (HPLC grade) was gradually added to a solution containing 2 µM rSol g 2.1 in 50 mM Tris–HCl buffer (pH 5.5 and pH 7.4) with 1% tween 20. Final concentrations of 0, 0.5, 1, 2, 4, 6, 8, 10, and 12 µM of 1-NPN were achieved, with methanol serving as a negative control. Fluorescence intensity was measured using a spectrofluorometer (FluoroMax + SpectroFluorometer, Horiba Scientific) with excitation at 337 nm and emission scanning from 370 to 490 nm, at room temperature, in triplicate. The equilibrium dissociation (Kd) value was determined by plotting the fluorescence intensity at 400 nm against each 1-NPN concentration. The data were fitted to a one-site-specific binding model as follows: Y = Bmax*X/(Kd + X), where Y, X, Bmax, and Kd are the fluorescence intensity (counts/second), fluorescence probe concentration (μM), the maximum specific binding in the same units as Y, and the equilibrium dissociation constant in the same units as X.
The potential ligands, including (E)-β-Farnesene, α-Caryophyllene, and 1-Octen-3-ol (all, Tokyo Chemical Industry (TCI), Tokyo, Japan) were used as competitors in the FCBA. For this, a mixture of 2 µM rSol g 2.1 protein and 5 µM 1-NPN in 50 mM Tris–HCl buffer (pH 5.5 and pH 7.4) with 1% tween 20 was titrated with each ligand (5 mM stock in methanol) to final concentrations of 0, 2, 4, 6, 8, 10, 12, 14, 20, 24, 28, and 32 µM. The fluorescence intensity at 400 nm for each concentration was fitted to the One Site-Fit Ki model to determine the dissociation constant of competitor ligands (Ki) as follows: logEC50 = log (10^logKi*(1 + RadioligandNM/HotKdNM))[22],[57]. Here, RadioligandNM represents the concentration of fixed 1-NPN (nM), HotKdNM represents Kd (nM), and Ki represents the equilibrium dissociation constant (Molar). All experiments were conducted in triplicate and analyzed using GraphPad Prism 9 software (San Diego, CA, USA)[22].

Row | SMILES | Kd ([1]; pH 5.5) [nM] | Kd ([1]; pH 7.4) [nM] | Ki ([2]; pH 5.5) [nM] | Ki ([2]; pH 7.4) [nM]
1 | c1ccc(Nc2cccc3ccccc23)cc1 [1-NPN, N-phenyl-1-naphthylamine] | 4830 ± 30 | 2330 ± 50 | – | –
2 | C=CC(O)CCCCC (centres unmarked) [1-Octen-3-ol] | – | – | 5610 | 2000
3 | C=CC(=C)CC/C=C(\C)CCC=C(C)C [(E)-β-Farnesene] | – | – | 1240 | 720
4 | C/C1=C\CC/C(C)=C/CC(C)(C)/C=C/C1 [α-Caryophyllene] | – | – | 16000 | 1060
